This note sets out measurements from US10267797B2, “Detection of oral microbial virulence factors” (The Procter & Gamble Company, priority 2015, dated 2019).

Assay [1] concerns THP-1 cells stimulated by P. gingivalis LPS 1690. As to the kind of experiment: Inhibition of LPS stimulated cytokine production in THP-1 cells. The note with it: 0.3 mM to 9 mM citrulline; 300 ng/ml LPS; 24 hours; IL-6, TNF-α, IL-12p70, IL-10, IL-2, IFN-r, IL-1β (FIG. 26). The assay is classed as cell-based, human. As for the experimental part: Citrulline was purchased from Sigma-Aldrich (St. Louis, Mo.). THP1-Dual™ cells were purchased from Invivogen (San Diego, Calif.). Cells were cultured following the manufacturer's instruction, as described in EXAMPLE 11. For treatment, 0.3 mM to 9 mM of citrulline were first added to the culture medium. […] After 24 hours of treatment, media was collected and analyzed for cytokine production using 9-plex kit (Meso Scale Diagnostics Rockville, Md.).

Another assay addresses TLR2 (Homo sapiens, UniProt O60603). The assay is described as follows: TLR2-SEAP reporter gene assay in HEK 293T cells. The note with it: P. gingivalis LPS; stannous 1000 uM (FIG. 4).
The target in another assay is T1, TLR4 (Homo sapiens, UniProt O00206+Q9Y6Y9).
T1 construct: host or cells: HEK 293T (HEK-Blue hTLR4)
T1 sequence (Q9Y6Y9 17-160): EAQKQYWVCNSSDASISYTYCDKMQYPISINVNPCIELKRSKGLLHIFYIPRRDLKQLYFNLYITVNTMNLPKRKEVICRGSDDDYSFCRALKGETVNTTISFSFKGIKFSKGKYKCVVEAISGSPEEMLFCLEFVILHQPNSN
T1 sequence (O00206 24-839): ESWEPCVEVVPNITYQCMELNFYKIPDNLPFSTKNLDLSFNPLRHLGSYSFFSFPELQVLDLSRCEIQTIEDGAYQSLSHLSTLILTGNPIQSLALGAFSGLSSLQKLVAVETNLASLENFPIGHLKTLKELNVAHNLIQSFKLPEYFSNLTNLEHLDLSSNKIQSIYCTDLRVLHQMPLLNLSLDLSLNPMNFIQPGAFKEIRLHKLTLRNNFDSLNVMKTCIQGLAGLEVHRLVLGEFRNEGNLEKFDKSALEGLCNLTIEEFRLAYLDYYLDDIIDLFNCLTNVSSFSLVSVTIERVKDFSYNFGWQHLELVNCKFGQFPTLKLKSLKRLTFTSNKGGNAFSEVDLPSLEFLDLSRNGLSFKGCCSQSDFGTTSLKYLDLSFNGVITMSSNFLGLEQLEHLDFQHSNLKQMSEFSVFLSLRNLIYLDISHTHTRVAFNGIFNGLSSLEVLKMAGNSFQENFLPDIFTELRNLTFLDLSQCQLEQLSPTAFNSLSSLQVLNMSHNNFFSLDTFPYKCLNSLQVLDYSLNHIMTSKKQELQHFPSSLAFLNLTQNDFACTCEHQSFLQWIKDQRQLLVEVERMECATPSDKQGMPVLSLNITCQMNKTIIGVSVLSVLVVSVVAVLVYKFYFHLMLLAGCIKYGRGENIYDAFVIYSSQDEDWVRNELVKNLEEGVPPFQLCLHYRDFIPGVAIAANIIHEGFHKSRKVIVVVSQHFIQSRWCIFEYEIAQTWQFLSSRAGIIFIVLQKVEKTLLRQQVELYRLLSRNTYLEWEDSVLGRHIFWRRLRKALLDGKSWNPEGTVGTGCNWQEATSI
The assay is classed as cell-based. The note with it: for reduction of P. gingivalis LPS activation on the TLR4 reporter system: P. gingivalis LPS 500 ng/ml.

Another assay has as its system E. coli LPS. The note with it: 0.63 mM; E. coli LPS 15 μg/ml.

Read-outs that look alike come from different tables or passages of the source.

Sequence of TLR2 (O60603 21-784): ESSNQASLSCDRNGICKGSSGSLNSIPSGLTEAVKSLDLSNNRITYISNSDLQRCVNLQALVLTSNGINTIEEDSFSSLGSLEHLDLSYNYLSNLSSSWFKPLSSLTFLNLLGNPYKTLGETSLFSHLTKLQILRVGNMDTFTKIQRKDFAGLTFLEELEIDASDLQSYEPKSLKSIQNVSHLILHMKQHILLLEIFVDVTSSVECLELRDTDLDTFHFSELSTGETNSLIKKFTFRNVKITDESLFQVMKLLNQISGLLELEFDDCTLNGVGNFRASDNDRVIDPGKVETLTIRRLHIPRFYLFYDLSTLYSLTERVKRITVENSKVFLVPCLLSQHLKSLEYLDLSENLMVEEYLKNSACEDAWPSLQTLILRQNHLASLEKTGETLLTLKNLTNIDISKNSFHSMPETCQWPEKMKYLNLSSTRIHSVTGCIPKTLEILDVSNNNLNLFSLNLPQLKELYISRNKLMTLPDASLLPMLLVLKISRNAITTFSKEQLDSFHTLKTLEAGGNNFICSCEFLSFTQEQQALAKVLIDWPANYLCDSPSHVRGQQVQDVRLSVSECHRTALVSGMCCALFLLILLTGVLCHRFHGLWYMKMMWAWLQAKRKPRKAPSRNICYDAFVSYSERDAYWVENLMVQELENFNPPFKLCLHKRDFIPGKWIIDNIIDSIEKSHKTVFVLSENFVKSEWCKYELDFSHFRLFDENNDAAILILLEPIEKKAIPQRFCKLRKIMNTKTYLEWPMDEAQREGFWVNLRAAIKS
From the text for TLR2: The cell line is named here as TLR2-SEAP. The reporter gene encodes a secreted enzyme, called embryonic alkaline phosphatase or SEAP. The SEAP reporter is placed under the control of the interferon-β minimal promoter fused to five NFkB and AP-1-binding sites. Furthermore, a CD14 co-receptor gene was transfected into the reporter gene cells expressing TLR2, as CD14 has been identified as a co-receptor for TLR2 ligands to enhance the TLR response. The CD14 co-receptor is needed to transfer LTA to TLR2 receptors. The recombinant TLR2 binds its ligand, or distinct pathogen-associated molecule, initiates a chain of responses, leading to recruitment of NFkB and AP1 transcription factors to the reporter gene promoter, which induce expression of SEAP.
For treatment with LTA, wells of a 96-well plate were seeded with 10,000 cells/well in 100 μL of growth medium. […] On day 4, medium (100 μL) was changed to DMEM medium without fetal calf serum. […] Samples were taken 24 hours later, following addition of samples. Expression of the reporter gene (SEAP) was quantified with a commercially available kit (SEAP Reporter Gene Assay of Cayman Chemical Co., Ann Arbor, Mich.).
From the text for TLR4: The cell line is named here as TLR4-SEAP. The reporter gene encodes a secreted enzyme, called embryonic alkaline phosphatase or SEAP. The SEAP reporter is placed under the control of the interferon-β minimal promoter fused to five NFkB and AP-1-binding sites. Furthermore, the TLR4-SEAP cell line also contains a CD14 co-receptor gene, which is needed to transfer LPS to TLR4 receptors. The recombinant TLR binds its ligand, or distinct pathogen-associated molecule, initiates a chain of responses, leading to recruitment of NFkB and AP1 transcription factors to the reporter gene promoter, which induce expression of SEAP.
For treatment, wells of a 96-well plate were seeded with 10,000 cells/well in 100 μL of growth medium. […] On day 4, medium was changed to assay medium (90 μl), which is the DMEM medium without fetal calf serum. […] 10 μl of the bacteria, LPS and culture medium of bacterial growth were added to the TLR4-SEAP cells. Samples were taken 24 hours later, following addition of LPS, bacteria, and culture medium. Expression of the reporter gene (SEAP) was quantified with a commercially available kit (SEAP Reporter Gene Assay of Cayman Chemical Co., Ann Arbor, Mich.).
EC50 was calculated using GraphPad Prism software (GraphPad Software, La Jolla, Calif.).
Tests were conducted to understand whether stannous fluoride could reduce LPS's ability to trigger proinflammatory responses in host cells.

Regarding `NC(=O)NCCC[C@H](N)C(=O)O` [Citrulline], the “effect on P. gingivalis LPS 1690 stimulated proinflammatory cytokine production” value in assay [1] is listed as “inhibited”.

For the compound `[F][Sn][F]` [Tin (II) fluoride], the “level of P. gingivalis induction of TLR-2” value on TLR2 was “decreased”. Besides, the “level of E. coli induction of TLR-4” value at TLR4 (100 ng/ml E. coli LPS, stannous 500 uM or higher (FIG. 3)) is “decreased”. In addition, the “reduction of P. gingivalis LPS activation on the TLR4 reporter system” value at TLR4 (3.2 mM (FIG. 5)) and on TLR4 ([…] (FIG. 5)) was “about 50%” in each case. The same compound gave a Displacement % in the assay with E. coli LPS of 12.69%.
